Assay [1] addresses PI3Kγ (p110γ) Recombinant Human Protein (Homo sapiens (Human), UniProt P48736). Nature of the assay: PI3K-γ Scintillation Proximity Assay. Particulars: read-out: PI3Kγ IC50. In kind it is biochemical. In a few lines: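 Recombinant human p110γ assayed at room temperature in 20 mM MOPS pH 6.7, 10 mM MgCl2, 5 mM DTT, 0.03% CHAPS, 2% DMSO, with 20 μM PIP2 and 2 μM ATP plus [γ-33P]ATP. Product captured on WGA SPA beads overnight and counted; IC50 fitted from % of solvent-control activity versus log inhibitor concentration.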

For assay [2], the target named is PI3Kδ (p110δ/p85α) Recombinant Human Protein (Homo sapiens (Human), UniProt O00329). Nature of the assay: PI3Kδ Scintillation Proximity Assay. In kind it is biochemical. In a few lines:
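Recombinant human p110δ/p85α (3.4 nM) with 20 μM PIP2 and 2 μM ATP plus [γ-33P]ATP, in 20 mM MOPS pH 6.7, 10 mM MgCl2, 5 mM DTT, 0.03% CHAPS, 2% DMSO; 120 min at room temperature. Product captured on WGA SPA beads, scintillation counted; IC50 from percent-of-control curves.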

Assay [3] has as its system Phosphorylated Ribosomal Protein S6 (RPS6). Nature of the assay: THP-1 RPS6 ELISA Assay. The class given is cell-based, Human. Particulars: THP-1 cells, read-out: PI3Kγ_THP1_RPS6_ELISA IC50. In outline: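 Serum-starved THP-1 cells were preincubated with a concentration range of compound for 2 h at 37 °C, then stimulated with 10 nM MCP-1 for 15 min. Phospho-RPS6 in lysates was quantified by ELISA at 450 nm. IC50 came from percent inhibition versus log inhibitor concentration.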

Consider 17 compounds from patent US10479795B2 (Incyte Corporation, priority 2016, dated 2019).

Counter-ions that a name gives are not always drawn. Like-named read-outs stand apart in the source and are kept apart here.

PI3Kγ (p110γ) Recombinant Human Protein, sequence (P48736 whole entry): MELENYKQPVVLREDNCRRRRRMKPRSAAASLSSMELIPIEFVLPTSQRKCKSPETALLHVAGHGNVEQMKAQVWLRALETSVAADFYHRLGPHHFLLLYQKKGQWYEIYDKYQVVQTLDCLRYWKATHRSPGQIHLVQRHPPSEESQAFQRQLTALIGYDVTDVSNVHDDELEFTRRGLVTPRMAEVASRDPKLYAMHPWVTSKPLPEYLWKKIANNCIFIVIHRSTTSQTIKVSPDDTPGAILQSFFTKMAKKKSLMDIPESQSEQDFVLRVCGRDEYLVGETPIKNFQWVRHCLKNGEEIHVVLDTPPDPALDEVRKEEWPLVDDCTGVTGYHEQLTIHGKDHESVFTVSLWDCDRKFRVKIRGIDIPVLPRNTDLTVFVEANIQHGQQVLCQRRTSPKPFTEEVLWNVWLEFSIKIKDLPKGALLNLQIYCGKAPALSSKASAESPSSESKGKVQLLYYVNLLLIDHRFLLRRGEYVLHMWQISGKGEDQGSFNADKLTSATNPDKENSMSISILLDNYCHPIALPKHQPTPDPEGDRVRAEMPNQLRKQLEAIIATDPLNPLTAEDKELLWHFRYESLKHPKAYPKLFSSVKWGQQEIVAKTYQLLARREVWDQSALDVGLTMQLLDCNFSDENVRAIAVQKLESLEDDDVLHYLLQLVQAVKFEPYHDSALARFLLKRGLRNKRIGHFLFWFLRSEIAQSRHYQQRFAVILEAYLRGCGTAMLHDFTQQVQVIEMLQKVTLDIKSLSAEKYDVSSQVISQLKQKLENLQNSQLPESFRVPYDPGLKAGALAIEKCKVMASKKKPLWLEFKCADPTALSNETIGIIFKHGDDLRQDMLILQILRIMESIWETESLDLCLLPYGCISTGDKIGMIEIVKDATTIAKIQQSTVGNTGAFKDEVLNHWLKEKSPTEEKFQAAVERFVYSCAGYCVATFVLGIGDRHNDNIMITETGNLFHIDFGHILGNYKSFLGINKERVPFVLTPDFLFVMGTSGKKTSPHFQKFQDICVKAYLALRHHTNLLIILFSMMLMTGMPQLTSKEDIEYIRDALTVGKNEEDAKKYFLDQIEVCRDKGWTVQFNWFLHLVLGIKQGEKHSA
PI3Kδ (p110δ/p85α) Recombinant Human Protein, sequence (O00329 whole entry): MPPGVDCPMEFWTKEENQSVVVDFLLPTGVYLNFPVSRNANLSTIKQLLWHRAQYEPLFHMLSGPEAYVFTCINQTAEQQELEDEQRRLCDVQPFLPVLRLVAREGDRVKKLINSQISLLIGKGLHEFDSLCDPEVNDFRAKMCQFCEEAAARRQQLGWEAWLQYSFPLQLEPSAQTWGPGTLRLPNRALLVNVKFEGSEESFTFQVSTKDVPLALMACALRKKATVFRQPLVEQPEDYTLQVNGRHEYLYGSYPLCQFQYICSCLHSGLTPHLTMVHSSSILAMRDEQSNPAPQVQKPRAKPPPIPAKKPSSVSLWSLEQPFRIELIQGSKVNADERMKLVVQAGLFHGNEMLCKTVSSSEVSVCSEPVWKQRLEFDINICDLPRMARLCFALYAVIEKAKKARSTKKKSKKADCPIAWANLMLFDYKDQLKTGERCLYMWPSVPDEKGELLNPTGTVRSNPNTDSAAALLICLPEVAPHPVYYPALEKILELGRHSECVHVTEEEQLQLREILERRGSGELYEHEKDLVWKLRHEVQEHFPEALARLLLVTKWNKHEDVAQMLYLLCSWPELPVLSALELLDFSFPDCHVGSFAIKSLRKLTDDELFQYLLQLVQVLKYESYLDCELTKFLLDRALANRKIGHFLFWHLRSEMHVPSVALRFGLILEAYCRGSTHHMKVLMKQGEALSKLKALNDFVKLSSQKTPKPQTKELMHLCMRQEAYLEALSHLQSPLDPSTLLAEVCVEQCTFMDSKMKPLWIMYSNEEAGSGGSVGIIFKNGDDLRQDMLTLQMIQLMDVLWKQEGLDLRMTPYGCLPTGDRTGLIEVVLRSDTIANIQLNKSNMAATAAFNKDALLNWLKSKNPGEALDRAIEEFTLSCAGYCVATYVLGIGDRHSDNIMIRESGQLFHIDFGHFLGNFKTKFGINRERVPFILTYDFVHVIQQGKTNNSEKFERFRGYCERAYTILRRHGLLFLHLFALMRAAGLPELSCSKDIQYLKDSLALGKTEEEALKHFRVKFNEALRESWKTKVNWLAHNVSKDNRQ
PI3Kδ (p110δ/p85α) Recombinant Human Protein, sequence (P27986 whole entry partner): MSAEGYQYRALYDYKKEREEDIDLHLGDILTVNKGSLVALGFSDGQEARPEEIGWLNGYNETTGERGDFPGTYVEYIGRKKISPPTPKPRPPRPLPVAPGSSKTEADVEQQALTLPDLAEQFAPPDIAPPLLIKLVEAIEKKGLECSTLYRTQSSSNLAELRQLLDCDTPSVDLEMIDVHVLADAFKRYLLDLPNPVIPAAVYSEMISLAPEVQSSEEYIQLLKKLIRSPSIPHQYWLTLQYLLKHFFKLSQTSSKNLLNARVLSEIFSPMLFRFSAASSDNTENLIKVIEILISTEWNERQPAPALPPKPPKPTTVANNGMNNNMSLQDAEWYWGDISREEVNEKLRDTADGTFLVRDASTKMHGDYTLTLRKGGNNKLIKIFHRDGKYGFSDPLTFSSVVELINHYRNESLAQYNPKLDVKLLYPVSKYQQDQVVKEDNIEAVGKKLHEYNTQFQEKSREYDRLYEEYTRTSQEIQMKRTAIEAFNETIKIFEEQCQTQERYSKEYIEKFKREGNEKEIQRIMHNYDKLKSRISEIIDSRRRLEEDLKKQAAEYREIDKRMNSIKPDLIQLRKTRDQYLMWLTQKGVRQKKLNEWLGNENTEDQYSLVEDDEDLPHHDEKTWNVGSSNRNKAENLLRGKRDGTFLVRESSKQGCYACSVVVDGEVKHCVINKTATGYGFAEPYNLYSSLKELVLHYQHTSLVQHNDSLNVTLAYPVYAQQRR

Turning to `CO[C@H]1CC[C@H](NS(=O)(=O)c2ccc(C)c(-c3cnc4c(N)ncnn34)c2)CC1` [Example 70, 3-(4-Aminoimidazo[2,1-f][1,2,4]triazin-7-yl)-N-(trans-4-methoxycyclohexyl)-4-methylbenzenesulfonamide], the results for the half-maximal inhibitory concentration (IC50) in assay [1], in assay [2] and in assay [3] (Homo sapiens) were below 100 nM, 500 to 2000 nM and above 1000 nM, respectively.

With `Cc1ccc(S(=O)(=O)NCC(C)(C)O)cc1-c1cnc2c(N)nc(C(F)(F)F)nn12` [Example 317, 3-(4-Amino-2-(trifluoromethyl)imidazo[1,2-f][1,2,4]triazin-7-yl)-N-(2-hydroxy-2-methylpropyl)-4-methylbenzenesulfonamide trifluoroacetate salt], the concentration for half-maximal inhibition (IC50) in assay [1] was below 100 nM; in assay [2], 100 to 500 nM; in assay [3], below 100 nM.

On to `Cc1ccc(S(=O)(=O)N[C@H]2CC[C@H](O)CC2)cc1-c1cnc2c(N)cc(-c3cncnc3)cn12` [Example 9, 3-(8-Amino-6-pyrimidin-5-ylimidazo[1,2-a]pyridin-3-yl)-N-(trans-4-hydroxycyclohexyl)-4-methylbenzenesulfonamide], for which the IC50 is below 100 nM in assay [1], 500 to 2000 nM in assay [2] and above 1000 nM in assay [3] (Homo sapiens).

`Cc1ccc(S(=O)(=O)NC23COC(C#N)(C2)C3)cc1-c1cnc2c(N)nc(C(F)(F)F)cn12` [Example 429, 3-(8-Amino-6-(trifluoromethyl)imidazo[1,2-a]pyrazin-3-yl)-N-(1-cyano-2-oxabicyclo[2.1.1]hexan-4-yl)-4-methylbenzenesulfonamide trifluoroacetate salt]: the IC50 in assay [1] was below 100 nM; in assay [2], 100 to 500 nM; in assay [3] (Homo sapiens) it was 100 to 500 nM.

In the case of `Cc1ccc(S(=O)(=O)N[C@H]2CC[C@H](O)CC2)cc1-c1cnc2c(N)nc(Br)cn12` [Example 16, 3-(8-Amino-6-bromoimidazo[1,2-a]pyrazin-3-yl)-N-(trans-4-hydroxycyclohexyl)-4-methylbenzenesulfonamide], the IC50 in assay [1], in assay [2] and in assay [3] (Homo sapiens) was below 100 nM in each case.

Consider `Cc1ccc(S(=O)(=O)NCC2(C)COC2)cc1-c1cnc2c(N)nc(C(F)(F)F)nn12` [Example 318, 3-(4-Amino-2-(trifluoromethyl)imidazo[1,2-f][1,2,4]triazin-7-yl)-4-methyl-N-((3-methyloxetan-3-yl)methyl)benzenesulfonamide trifluoroacetate salt], for which the results for the IC50 in assay [1], in assay [2] and in assay [3] were below 100 nM, 100 to 500 nM and below 100 nM, respectively.

For `N#CC12CCC(NS(=O)(=O)c3cc(-c4cnc5c(N)nc(C(F)(F)F)nn45)ccc3Cl)(C1)C2` [Example 414, 5-(4-Amino-2-(trifluoromethyl)imidazo[1,2-f][1,2,4]triazin-7-yl)-2-chloro-N-(4-cyanobicyclo[2.1.1]hexan-1-yl)benzenesulfonamide], the concentration for half-maximal inhibition (IC50) in assay [1] was below 100 nM; in assay [2], below 100 nM; in assay [3], 100 to 500 nM.

As to `CC(=O)Nc1cc(Cl)cn2c(-c3cc(S(=O)(=O)N[C@H]4CC[C@H](O)CC4)ccc3C)cnc12` [Example 5, N-[6-chloro-3-(5-{[(trans-4-hydroxycyclohexyl)amino]sulfonyl}-2-methylphenyl)imidazo[1,2-a]pyridin-8-yl]acetamide], the IC50 is below 100 nM in assay [1], 100 to 500 nM in assay [2] and 100 to 500 nM in assay [3] (Homo sapiens).

In the case of `Cc1ccc(S(=O)(=O)NC23CC(C(F)F)(C2)C3)cc1-c1cnc2c(N)nc(C(F)(F)F)cn12` [Example 278, 3-(8-Amino-6-(trifluoromethyl)imidazo[1,2-a]pyrazin-3-yl)-N-(3-(difluoromethyl)bicyclo[1.1.1]pentan-1-yl)-4-methylbenzenesulfonamide trifluoroacetate salt], the IC50 in assay [1] is below 100 nM; in assay [2], 100 to 500 nM; in assay [3] (Homo sapiens), below 100 nM.

`Cc1ccc(S(=O)(=O)NC23CC(Cn4ccnc4)(C2)C3)cc1-c1cnc2c(N)ncnn12` [Example 112, N-(3-((1H-Imidazol-1-yl)methyl)bicyclo[1.1.1]pentan-1-yl)-3-(4-aminoimidazo[1,2-f][1,2,4]triazin-7-yl)-4-methylbenzenesulfonamide trifluoroacetate salt]: the IC50 was below 100 nM in assay [1], 100 to 500 nM in assay [2] and 100 to 500 nM in assay [3].

On to `CC(=O)C12CC(NS(=O)(=O)c3ccc(C)c(-c4cnc5c(N)ncnn45)c3)(C1)C2` [Example 95, N-(3-Acetylbicyclo[1.1.1]pentan-1-yl)-3-(4-aminoimidazo[1,2-f][1,2,4]triazin-7-yl)-4-methylbenzenesulfonamide trifluoroacetate salt], for which the values for the IC50 in assay [1], in assay [2] and in assay [3] were below 100 nM, 100 to 500 nM and 100 to 500 nM, respectively.

Turning to `Cc1nc(N)c2ncc(-c3cc(S(=O)(=O)N[C@H]4CC[C@](C)(O)CC4)c(F)cc3C)n2n1` [Example 402, 5-(4-amino-2-methylimidazo[1,2-f][1,2,4]triazin-7-yl)-2-fluoro-N-((1r,4r)-4-hydroxy-4-methylcyclohexyl)-4-methylbenzenesulfonamide trifluoroacetate salt], the IC50 was below 100 nM in assay [1], 100 to 500 nM in assay [2] and 100 to 500 nM in assay [3].

On to `Cc1noc(C23CC(NS(=O)(=O)c4ccc(C)c(-c5cnc6c(N)ncnn56)c4)(C2)C3)n1` [Example 94, 3-(4-Aminoimidazo[1,2-f][1,2,4]triazin-7-yl)-4-methyl-N-(3-(3-methyl-1,2,4-oxadiazol-5-yl)bicyclo[1.1.1]pentan-1-yl)benzenesulfonamide trifluoroacetate salt], for which the figures for the IC50 in assay [1], in assay [2] and in assay [3] were below 100 nM, 100 to 500 nM and 500 to 1000 nM, respectively.

With `Cc1ccc(S(=O)(=O)N[C@H]2CC[C@H](O)CC2)cc1-c1cnc2c(N)nc(-c3cnn(C(C)(C)C#N)c3)cn12` [Example 78, 3-{8-amino-6-[1-(1-cyano-1-methylethyl)-1H-pyrazol-4-yl]imidazo[1,2-a]pyrazin-3-yl}-N-(trans-4-hydroxycyclohexyl)-4-methylbenzenesulfonamide], the IC50 is below 100 nM in assay [1], 100 to 500 nM in assay [2] and 500 to 1000 nM in assay [3] (Homo sapiens).

In the case of `Cc1nc(N)c2ncc(-c3cc(S(=O)(=O)NC45CCC(O)(CC4)C5)ccc3C)n2n1` [Example 443, 3-(4-Amino-2-methylimidazo[1,2-f][1,2,4]triazin-7-yl)-N-(4-hydroxybicyclo[2.2.1]heptan-1-yl)-4-methylbenzenesulfonamide trifluoroacetate salt], the IC50 in assay [1] was below 100 nM; in assay [2] it was below 100 nM; in assay [3] (Homo sapiens), 100 to 500 nM.

For `Cc1cn2c(-c3cc(S(=O)(=O)NC45CCC(C#N)(C4)C5)ccc3C)cnc2c(N)n1` [Example 263, 3-(8-Amino-6-methylimidazo[1,2-a]pyrazin-3-yl)-N-(4-cyanobicyclo[2.1.1]hexan-1-yl)-4-methylbenzenesulfonamide trifluoroacetate salt], the IC50 in assay [1] is below 100 nM; in assay [2], 100 to 500 nM; in assay [3] (Homo sapiens) it was 100 to 500 nM.

Consider `COc1cn[nH]c1-c1cn2c(-c3cc(S(C)(=O)=O)ccc3C)cnc2c(N)n1` [Example 491, 6-(4-Methoxy-1H-pyrazol-5-yl)-3-(2-methyl-5-(methylsulfonyl)phenyl)imidazo[1,2-a]pyrazin-8-amine trifluoroacetate], for which the concentration for half-maximal inhibition (IC50) in assay [1] was below 100 nM; in assay [2], 100 to 500 nM; in assay [3] (Homo sapiens), 100 to 500 nM.
